System: S. aureus ATCC 6538
Test: Porcine deep partial-thickness wound model inoculated with S. aureus; planktonic (flush) and biofilm (scrub) bacterial counts on day 2
Type: in vivo, Staphylococcus aureus
Description: Summarily, forty-four deep, partial-thickness wounds were created on the paravertebral area on two pigs. Four wounds each were randomly assigned to eleven treatment groups and inoculated with S. aureus ATCC 6538. Wounds were treated with approximately 200 mg of each treatment. On day 2, wounds were assessed using a flush and scrub technique to recover planktonic and biofilm-associated bacterial count, respectively.
Swine (2 animals) were used as the experimental animal due to the morphological, physiological, and biochemical similarities between swine skin and human skin.
• 44 deep partial thickness wounds measuring 10 mm×7 mm×0.5 mm were made in the peravertebral and thoracic areas of each animal • 4 wounds were randomly assigned to each of the 11 treatment groups Inoculation: • 25 μl of inoculum of 10^6 CFU/ml were inoculated into each wound and scrubbed lightly using a sterile Teflon spatula. Experimental Design: Pig 1: Treatment Groups
• Within 20 minutes of inoculation each wound was treated with the appropriate treatment. Each wound was treated with ≅200 mg of the appropriate treatment (days 0 and 1). • All wounds were covered with polyurethane film dressings Wound Recovery: • A sterile surgical steel cylinder (22 mm inside diameter) was placed over the wound area and 1 ml of all-purpose neutralizer solution was pipetted inside. • The site was gently flushed by pipetting in and out three times to remove the loosely attached bacteria (a), this aliquot represents the planktonic bacteria. • The same wound was then encircled using another sterile cylinder and 1 ml of all-purpose neutralizer solution was again pipetted into the cylinder and this time scrubbed with a sterile Teflon spatula for 30 seconds to remove the firmly attached bacteria (b), this aliquot was aspirated and represents biofilm bacteria.

[1] = swine wounds, 30000 μM (=15 mg/ml) DTPA used alone, topical, day 2

## diethylenetriamine pentaacetic acid [DTPA]
30000 μM DTPA alone
  reduction of S. aureus counts compared to the untreated group: 99.96%
All concentrations of DTPA alone (30 to 30000 μM)
  bacterial counts (planktonic and biofilm) versus untreated control wounds: reduced bacterial counts
[1]
  biofilm count: 6.09±012 Log CFU/ml
  planktonic bacterial count: 5.19±0.29 Log CFU/ml

## gentamicin [Gentamicin 0.1%, reference compound]
0.1% Gentamicin positive control compared with all DTPA concentrations alone
  reduction in wound bioburden versus DTPA alone: substantially more reduction in wound bioburden than any of the DTPA concentrations alone

From patent publication US10124064B2, “Antimicrobial compositions of aminoglycosidic antibiotics and zinc ion chelators specifically formulated for enhanced inhibition of bacterial colonization and antibacterial efficacy” (University of Cincinnati, priority 2013, dated 2018)
